Measurements published in PubChem BioAssay AID651630 (Sanford-Burnham Center for Chemical Genomics, 2012).
Activity calls are given as the source filed them.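 The calls were made as follows: active = lipid-stain IC50 at or below a set limit, with nuclear-stain toxicity IC50 at least five times higher; inactive = the rest.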

What was measured:
DAPI = assay: triacylglycerol accumulation inhibitor potency, dose response, cell-based, panel, Nile Red and DAPI fluorescence, H9c2 (AID 651630); settings: H9c2 cells, DAPI nuclear fluorescence (cytotoxicity counter-readout), oleic acid;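 also: cells exposed to compound overnight before fixation and staining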
TAG = assay: as above; settings: H9c2 cells, Nile Red TAG fluorescence, oleic acid

Row | Compound | IC50 cytotoxicity (DAPI nuclear signal decrease) (DAPI; run 1) | IC50 cytotoxicity (DAPI nuclear signal decrease) (DAPI; run 2) | IC50 (TAG; mean of runs) | IC50 (TAG; run 1) | IC50 (TAG; run 2) | IC50 cytotoxicity (DAPI nuclear signal decrease) (DAPI; mean of runs)
1 | Nc1c(C(=O)Nc2ccccc2)c2nc3ccccc3nc2n1-c1ccc(O)cc1 | > 25 µM | > 25 µM | 2.99 µM | 2.11 µM | 3.88 µM | 
2 | CCN1CCN(Cc2ccc(NC(=O)c3cc(NC(=O)C(=O)c4c[nH]c5ccccc45)cc(OC)c3)cc2C(F)(F)F)CC1 | 23.4 µM | 23.4 µM | 5.76 µM | 5.58 µM | 5.93 µM | 23.4 µM (inactive)
3 | C[C@H](CO)N1C[C@H](C)[C@H](CN(C)S(=O)(=O)c2ccc(Cl)cc2)OCc2ccccc2-c2c(n(C)c3ccccc23)C1=O | 13 µM | > 25 µM | > 25 µM (inactive) | > 25 µM | > 25 µM | 
4 | CCCCCCCC(=O)Nc1cc(C(=O)NCCC)ccc1N1CCC2(CC1)CC(c1cccc(Br)c1)=NO2 | > 25 µM | > 25 µM | 15.2 µM (inactive) | 11.8 µM | 18.6 µM | > 25 µM (inactive)
5 | COc1ccccc1Nc1nnc(SCC(=O)Nc2nc(-c3ccc(F)cc3)cs2)s1 | > 25 µM | > 25 µM | > 25 µM (inactive) | > 25 µM | > 25 µM | > 25 µM (inactive)
6 | Cc1nc2c(ccc3nc(NC(=O)Cc4cccc5ccccc45)sc32)s1 | > 25 µM | > 25 µM | 13.3 µM | 11.5 µM | 15.1 µM | > 25 µM (inactive)
7 | CC1(C(=O)NCc2ccco2)Cc2c(-c3cccc(C(F)(F)F)c3)ccnc2O1 (stereo unspecified) | > 25 µM | > 25 µM | > 25 µM (inactive) | > 25 µM | > 25 µM | > 25 µM (inactive)
8 | CC(=O)OC12COC1CC(O)C1(C)C(=O)C(O)C3=C(C)C(O)CC(O)(C(OC(=O)c4ccccc4)C21)C3(C)C (stereo unspecified) | > 25 µM | > 25 µM | 9.4 µM | 9.73 µM | 9.07 µM | > 25 µM (inactive)
9 | Cc1noc(C)c1CSc1nc2[nH]ncc2c(=O)n1-c1ccccc1 | > 25 µM | > 25 µM | 4.41 µM | 3.41 µM | 5.41 µM | 
10 | c1ccc(Oc2nc(-c3ccccn3)nc3ccccc23)cc1 | > 25 µM | > 25 µM | > 25 µM (inactive) | > 25 µM | > 25 µM | > 25 µM (inactive)
11 | NC(N)=Nc1ccc(C=C2C=Cc3ccccc32)cc1 | 21.2 µM | 24.5 µM | 11.8 µM | 12.6 µM | 11.1 µM | 22.8 µM (inactive)
12 | CCOC(=O)c1ccc(NC(=O)c2nc[nH]c2C(=O)NCCCCNC(=O)c2[nH]cnc2C(=O)Nc2ccc(C(=O)OCC)cc2)cc1 | > 25 µM | > 25 µM | 3.89 µM | 3.09 µM | 4.69 µM | 
13 | Cc1ccc(-c2nn3c(C)nnc3c3ccccc23)cc1S(=O)(=O)NC(C)c1ccccc1 (stereo unspecified) | > 25 µM | > 25 µM | 19.7 µM (inactive) | 18.7 µM | 20.6 µM | > 25 µM (inactive)
14 | COc1ccccc1NC1=NC(c2ccc(Cl)cc2)N=C(N)N1 (stereo unspecified) | > 25 µM | > 25 µM | > 25 µM (inactive) | > 25 µM | > 25 µM | > 25 µM (inactive)
15 | COc1ccc(Oc2nc(-c3ccccn3)nc3ccccc23)cc1 | > 25 µM | > 25 µM | > 25 µM (inactive) | > 25 µM | > 25 µM | > 25 µM (inactive)
16 | CCCSc1nc(SCC(=O)NCc2ccccc2)c2c3c(sc2n1)COC(C)(CC)C3 (stereo unspecified) | > 25 µM | > 25 µM | > 25 µM (inactive) | > 25 µM | > 25 µM | > 25 µM (inactive)
17 | COc1cc(-c2ccc3oc(-c4cccc(C)c4)c(C#CC4(O)CCCCC4)c3c2)cc(OC)c1OC | > 25 µM | > 25 µM | 15.9 µM (inactive) | 14.2 µM | 17.6 µM | > 25 µM (inactive)

Row | Compound | IC50 cytotoxicity (DAPI nuclear signal decrease) (DAPI; run 1) | IC50 cytotoxicity (DAPI nuclear signal decrease) (DAPI; run 2) | IC50 (TAG; mean of runs) | IC50 (TAG; run 1) | IC50 (TAG; run 2) | IC50 cytotoxicity (DAPI nuclear signal decrease) (DAPI; mean of runs)
18 | CCN(CC)CCNc1ncnc2c1sc1nc(N3CCCC3)c3c(c12)CC(C)(C)OC3 | > 25 µM | > 25 µM | 18 µM (inactive) | 16.9 µM | 19.1 µM | > 25 µM (inactive)
19 | Cc1noc(C)c1COc1cccc(C(=O)OCC(=O)N2CC(=O)Nc3ccccc32)c1 | > 25 µM | > 25 µM | 15.4 µM (inactive) | 11.2 µM | 19.7 µM | > 25 µM (inactive)
20 | COc1ccc2sc(-c3ccc(N(C)C)cc3)c(C#CCO)c2c1 | > 25 µM | > 25 µM | 6.43 µM | 6.72 µM | 6.13 µM | > 25 µM (inactive)
21 | Cc1ccc(C(=O)NCCN2C3=NC[C@H](C(C)C)N3C[C@H]2Cc2ccc(O)cc2)cc1Br | > 25 µM | > 25 µM | 16.8 µM (inactive) | 16.9 µM | 16.7 µM | > 25 µM (inactive)
22 | CCCSc1ccc2nc(NC(=O)OC)[nH]c2c1 | > 25 µM | > 25 µM | > 25 µM (inactive) | > 25 µM | > 25 µM | > 25 µM (inactive)
23 | C[C@@H]1CN([C@H](C)CO)C(=O)c2cccc(NC(=O)Nc3ccc(C(F)(F)F)cc3)c2O[C@H]1CN(C)S(=O)(=O)c1cccs1 | > 25 µM | > 25 µM | 15.9 µM (inactive) | 13.8 µM | 18 µM | > 25 µM (inactive)
24 | O=C1c2ccccc2C(=O)c2c1cccc2N1CCN(C/C=C/c2ccccc2)CC1 | > 25 µM | > 25 µM |  | 23.1 µM | > 25 µM | > 25 µM (inactive)
25 | CC(C)c1ccc(NC(=O)Nc2nc(C(N)COCc3ccccc3)cs2)cc1 (stereo unspecified) | 20.8 µM | 19.7 µM |  | > 25 µM | 14 µM | 20.2 µM (inactive)
26 | COc1cc(NC(=O)c2cc([N+](=O)[O-])ccc2NC(=O)CN2CCN(c3ccccn3)CC2)cc(OC)c1 | > 25 µM | > 25 µM | 12.6 µM | 13.3 µM | 11.9 µM | > 25 µM (inactive)
27 | C[C@@H]1CN([C@H](C)CO)C(=O)c2c(c3ccccc3n2C)-c2ccccc2CO[C@H]1CN(C)Cc1ccc(-c2ccccc2)cc1 | > 25 µM | > 25 µM | 14.9 µM | 9.62 µM | 20.1 µM | > 25 µM (inactive)
28 | CCCCN(C)C(=O)c1ccc(Nc2nc(C(N)Cc3ccc(C(F)(F)F)cc3)cs2)nc1 (stereo unspecified) | > 25 µM | > 25 µM | > 25 µM (inactive) | > 25 µM | > 25 µM | > 25 µM (inactive)
29 | COc1ccc(-c2ccc3[nH]c4c(c3c2)CCN2C[C@@H]([C@H](C)OC(=O)Nc3cc(Cl)cc(Cl)c3)[C@@H](N(C)C(=O)Nc3cc(Cl)cc(Cl)c3)C[C@@H]42)cc1 | > 25 µM | > 25 µM | 11.6 µM | 9.42 µM | 13.9 µM | > 25 µM (inactive)
30 | O=C(Nc1ccc(/C=C/c2nc3ccccc3o2)cc1)c1c(F)cccc1F | > 25 µM | > 25 µM | 10.5 µM | 13.2 µM | 7.82 µM | > 25 µM (inactive)
31 | COc1ccc2nc3cc([N+](=O)[O-])ccc3c(NNc3ccc([N+](=O)[O-])cc3)c2c1 | > 25 µM | > 25 µM | 5.93 µM | 10.4 µM | 1.44 µM | > 25 µM (inactive)
32 | COc1cc(OC)c2c(-c3ccccc3)cc(=O)oc2c1C(CCN1CCCC(C)C1)c1ccc2c(c1)OCO2 (stereo unspecified) | > 25 µM | > 25 µM |  | > 25 µM | 13.7 µM | > 25 µM (inactive)
33 | CC(C)=CCNc1ncnc2c1c(C#N)cn2C1OC(CO)C(O)C1O (stereo unspecified) | > 25 µM | > 25 µM | > 25 µM (inactive) | > 25 µM | > 25 µM | > 25 µM (inactive)
